Source: ChEMBL document CHEMBL5356979, “Synthesis, antibiofilm activity and molecular docking of N-acylhomoserine lactones containing cinammic moieties” (Bioorg Med Chem Lett, 2024)
Activity calls are given as the source filed them. The rule behind the calls is not given here.

Key:
Klebsiella pneumoniae [1] = experiment: Antibiofilm activity against Klebsiella pneumoniae assessed as inhibition of biofilm formation at 50 uM incubated for 24 hrs by crystal violet staining based analysis relative to control; format: functional
Staphylococcus aureus [2] = experiment: Antibacterial activity against Staphylococcus aureus assessed as inhibition of bacterial growth at 50 uM incubated for 24 hrs by microdilution method; format: functional, organism-based
Staphylococcus aureus [3] = experiment: Antibiofilm activity against Staphylococcus aureus assessed as inhibition of biofilm formation at 50 uM incubated for 24 hrs by crystal violet staining based analysis relative to control; format: functional
Pseudomonas aeruginosa [4] = experiment: Antibiofilm activity against Pseudomonas aeruginosa assessed as inhibition of biofilm formation at 50 uM incubated for 24 hrs by crystal violet staining based analysis relative to control; format: functional
Pseudomonas aeruginosa [5] = experiment: Antibacterial activity against Pseudomonas aeruginosa assessed as inhibition of bacterial growth at 50 uM incubated for 24 hrs by microdilution method; format: functional, organism-based
Klebsiella pneumoniae [6] = experiment: Antibacterial activity against Klebsiella pneumoniae assessed as inhibition of bacterial growth at 50 uM incubated for 24 hrs by microdilution method; format: functional, organism-based
[7] = Aqueous solubility of compound; format: physicochemical; conditions: buffer
[8] = Inhibition of quorum sensing system in Chromobacterium violaceum assessed as inhibition of violacein secretion by measuring inhibition halo at 100 uM
[9] = Cytotoxicity against green monkey COS-7 cells assessed as inhibition of cell growth at 100 uM relative to control; format: toxicity, cell-based; conditions: chlorocebus aethiops
[10] = Inhibition of quorum sensing system in Chromobacterium violaceum assessed as inhibition of violacein secretion by measuring inhibition halo at 50 uM
[11] = test system: Rhodopseudomonas palustris; experiment: Antibiofilm activity against Rhodopseudomonas palustris assessed as inhibition of biofilm formation at 1 uM relative to control; format: functional

Row | solubility [7] | inhibition zone (IZ) [8] [mm] | inhibition zone (IZ) [10] [mm] | SMILES | inhibition at 50 µM (Klebsiella pneumoniae [1]) [%] | Activity (Staphylococcus aureus [2]) | inhibition at 50 µM (Staphylococcus aureus [3]) [%] | inhibition at 50 µM (Pseudomonas aeruginosa [4]) [%] | Activity (Pseudomonas aeruginosa [5]) | Activity (Klebsiella pneumoniae [6]) | inhibition at 100 µM [9] [%] | inhibition at 1 µM [11] [%]
1 |  |  |  | O=C(/C=C/c1ccco1)N[C@H]1CCOC1=O | 0 | inactive | 18.2 | 24.3 | inactive | inactive |  | 
2 | Insoluble |  |  | Cn1cccc1/C=C/C(=O)N[C@H]1CCOC1=O | 0 | inactive | 0 | 0 | inactive | inactive |  | 
3 |  | 2.7 | 2.2 | O=C(/C=C/C=C/c1ccccc1)N[C@H]1CCOC1=O | 28.3 | inactive | 14 | 30.2 | inactive | inactive | 0 | 
4 | Insoluble |  |  | O=C(/C=C/c1cccc(F)c1)N[C@H]1CCOC1=O | 0 | inactive | 0 | 0 | inactive | inactive |  | 
5 | Insoluble |  |  | O=C(/C=C/c1ccc2c(c1)OCO2)N[C@H]1CCOC1=O | 27.1 | inactive | 5 | 0 | inactive | inactive |  | 
6 |  |  |  | O=C(/C=C/c1ccc(F)cc1)N[C@H]1CCOC1=O | 0 | inactive | 0 | 20.3 | inactive | inactive |  | 
7 |  |  |  | CC(C)c1ccc(/C=C/C(=O)N[C@H]2CCOC2=O)cc1 | 17.9 | inactive | 16.1 | 23.7 | inactive | inactive |  | 
8 |  | 0.3 | 0.6 | COc1ccc(/C=C/C(=O)N[C@H]2CCOC2=O)cc1 | 12 | inactive | 8.49 | 35.9 | inactive | inactive |  | 
9 |  |  |  | CC(C)=CCC/C(C)=C/C(=O)N[C@H]1CCOC1=O | 24.5 | inactive | 26.5 | 25.3 | inactive | inactive |  | 
10 |  | 5.1 | 1.3 | O=C1C=C(Br)/C(=C/Br)O1 | 8.4 |  | 10.1 | 40.2 |  |  |  | 
11 | Insoluble |  |  | O=C(/C=C/c1ccc(-c2ccccc2)cc1)N[C@H]1CCOC1=O | 0 | inactive | 8.4 | 0 | inactive | inactive |  | 
12 |  | 0.6 | 1.3 | O=C(/C=C/c1ccccc1)N[C@H]1CCOC1=O | 0 | inactive | 18 | 29.1 | inactive | inactive |  | 
13 |  | 2 | 1.3 | Cc1ccc(/C=C/C(=O)N[C@H]2CCOC2=O)cc1 | 16.9 | inactive | 4.4 | 29.8 | inactive | inactive |  | 
14 |  | 3.7 | 2.7 | COc1cc(/C=C/C(=O)N[C@H]2CCOC2=O)cc(OC)c1OC | 0 | inactive | 37.1 | 26.9 | inactive | inactive | 3.2 | 
15 | Insoluble |  |  | Cn1c(/C=C/C(=O)N[C@H]2CCOC2=O)cc2ccccc21 | 0 | inactive | 0.5 | 0 | inactive | inactive |  | 
16 |  |  |  | O=C(/C=C/c1cccs1)N[C@H]1CCOC1=O | 12.6 | inactive | 15.3 | 19.6 | inactive | inactive |  | 
17 |  |  |  | O=C(/C=C/c1ccc(Cl)cc1)N[C@H]1CCOC1=O | 0 | inactive | 12 | 23.7 | inactive | inactive |  | 30
18 |  |  |  | O=C(/C=C/c1cccnc1)N[C@H]1CCOC1=O | 0 | inactive | 0 | 14.2 | inactive | inactive |  | 
19 |  |  |  | O=C(/C=C/c1ccc(C(F)(F)F)cc1)N[C@H]1CCOC1=O | 30.2 | inactive | 2.2 | 0 | inactive | inactive |  | 
20 | Insoluble |  |  | COc1cccc(/C=C/C(=O)N[C@H]2CCOC2=O)c1 | 22.3 | inactive | 27.3 | 0 | inactive | inactive |  | 
